Experiments:
[1] = cited from earlier work
[2] = tested on: G402 and CJM cells overexpressing MGLL; assay: Lentiviral ORF overexpression, compound sensitivity (CellTiter-Glo, GR); assay type: cell-based; conditions: 72 hours
Method: (§1) Cell lines were taken from viably frozen stocks of the same original provenance as for CTRP and DepMap data, with identity confirmed by SNP-based DNA fingerprinting as described previously (12, 13, 39). Cell lines were propagated using the same media and culture conditions as for CTRPv2.0 experiments. […] For live-cell imaging, cells were plated into clear-bottom plates (Corning) and imaged on an IncuCyte S3 throughout the course of the experiment. For CellTiter-Glo experiments, the initial viability of a subset of plated cells was established at the same time as compound addition using CellTiter-Glo as described previously (24). […] DMSO- and D0-normalized concentration-response curves were generated using four-parameter nonlinear regression using the drc package in R (40). Biphasic curves were also fit and prioritized relative to standard four-parameter curves where appropriate using the BIC (Bayesian information criteria) metric. […] General-purpose optimization (Nelder-Mean algorithm) was used for single-agent fits, and the “model” option was used to predict variance. Overall significance was assessed using the bootstrapped meanR test (n=1000 iterations), and per-concentration significance using maxR, as described by the package authors.
Infection and selection were carried out according to GPP Viral Infection protocols, followed by cell seeding in 384-well plates for compound treatment or harvesting for Western blotting as described above.
Parental cell lines were virally transduced with cDNAs that constitutively overexpressed BCL2L1, AIFM2, or MGLL (in G402 and CJM cells); ABCB1 or MGMT (in WM2664 cells); SLC7A11 (in BT12 and G402 cells); MCL1 (in HCC1500 cells); or IRS2 (in T47D cells) and subsequently drug sensitivity was measured. To account for potential differences in growth rates and to distinguish between cytostatic and cytotoxic drug responses, the normalized growth rate inhibition (GR) metric was used to assess cell viability (FIG. 3A) (18).

MGLL = MGLL (Homo sapiens, UniProt Q99685); assay: Recombinant protein/mass spec assay of MGLL-mediated modification; assay type: biochemical
From the text: The GSK-J4-modifying impact of MGLL is examined further via a recombinant protein/mass spec assay.

[3] = tested on: ATF4/metallothionein/ER stress; conditions: cited from earlier work
KMRC3 cells = assay: IncuCyte live-cell microscopy of cellular proliferation; assay type: cell-based
Method: as §1

HEC1A and SUIT2 cells = assay: CRISPR-Cas9 knockout of MGLL, GSK-J4 sensitivity; assay type: cell-based; conditions: 4 different sgRNAs
Method: Cas9 stably-infected HEC1A, MEWO, SUIT2, and WM2664 cells and sgRNAs (pXPR_BRD003 vector) targeting AIFM2, IRS2, MGLL, or control guides (non-cutting) were acquired from the GPP (FIG. 23). Cell line identities were confirmed to match parental cells using SNP fingerprinting. Virus was generated and infection carried out as described above. After puromycin selection (3 μg/mL for MEWO, 1.5 μg/mL for WM2664, 2 μg/mL for SUIT2 and HEC1A), cells were seeded in 384-well plates for compound treatment or harvested for Western blotting as described above.
Further, MGLL knockout in HEC1A cells was rescued by overexpression of MGLL when using an sgRNA that targeted MGLL across an intron-exon boundary and that therefore could not cut the MGLL ORF.

G402 cells = assay: Overexpression of MGLL WT or enzyme-dead MGLL S132A, GSK-J4 sensitivity; assay type: cell-based
Method: Cell lines were taken from viably frozen stocks of the same original provenance as for CTRP and DepMap data, with identity confirmed by SNP-based DNA fingerprinting as described previously (12, 13, 39). Cell lines were propagated using the same media and culture conditions as for CTRPv2.0 experiments. For drug-treatment assays, 1000 cells per well were plated into 30 or […], of media in 384-well plates. For live-cell imaging, cells were plated into clear-bottom plates (Corning) and imaged on an IncuCyte S3 throughout the course of the experiment. For CellTiter-Glo experiments, the initial viability of a subset of plated cells was established at the same time as compound addition using CellTiter-Glo as described previously (24). Remaining cells were exposed to compounds and/or vehicle (constant DMSO volume) using a Tecan D300e Digital Dispenser, and CellTiter-Glo was added 72 hours later. DMSO- and D0-normalized concentration-response curves were generated using four-parameter nonlinear regression using the drc package in R (40). […] For calculation of drug combination effects, curves were fit and deviation from the null model (Loewe additivity) assessed using the BIGL package in R (reference: PMID 29263342) (41). […] Overall significance was assessed using the bootstrapped meanR test (n=1000 iterations), and per-concentration significance using maxR, as described by the package authors. […]

MGLL, sequence (Q99685 whole entry): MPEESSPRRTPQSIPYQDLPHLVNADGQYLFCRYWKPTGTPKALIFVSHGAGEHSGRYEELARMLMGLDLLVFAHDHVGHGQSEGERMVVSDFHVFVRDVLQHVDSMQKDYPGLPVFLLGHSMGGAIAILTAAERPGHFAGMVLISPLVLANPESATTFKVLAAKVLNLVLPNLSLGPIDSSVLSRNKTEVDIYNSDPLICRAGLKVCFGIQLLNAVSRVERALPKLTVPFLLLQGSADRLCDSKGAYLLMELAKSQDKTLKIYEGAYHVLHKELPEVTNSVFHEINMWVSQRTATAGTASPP

MGLL-mediated modification (MGLL): confirmed
SMILES: CCOC(=O)CCNc1cc(N2CCc3ccccc3CC2)nc(-c2ccccn2)n1 [GSK-J4]
cellular permeability [1]: high cellular permeability | shift in GR50 conferred by MGLL overexpression [2]: 20 fold | time to induction of ATF4/metallothionein/ER stress [3]: ≤ 6 h | rescue of proliferation effects by MGLL (KMRC3 cells): durably rescued | time at which effects on cell proliferation were observed (KMRC3 cells): ≤ 12 h | effect of knockout of MGLL on response (HEC1A and SUIT2 cells): sensitize | sensitivity of MGLL S132A overexpressing cells versus parental or control-infected cells (G402 cells; MGLL S132A): equally sensitive | effect of MGLL WT overexpression (G402 cells; MGLL WT): significant resistance
